ChEMBL document CHEMBL2176937, “Small-molecule structure correctors target abnormal protein structure and function: structure corrector rescue of apolipoprotein E4-associated neuropathology” (J Med Chem, 2012)
pEC50, pIC50: −log10 of the molar value.

Assays:
[1] = Inhibition of apoE4 expressed in Neuro2a cells assessed as increase in COX1 level by Western blot assay; format: cell-based; conditions: N2a
[2] = Inhibition of apoE4 expressed in rat PC12 cells assessed as reversal of mitochondrial impairment; format: cell-based; conditions: pc-12

Row | pIC50 [1] | pEC50 [2] | Compound
1 | 7.39 |  | Cn1nc(CC(=O)Nc2ccc(CN3CCN(C(=O)OC(C)(C)C)CC3)cc2)c2ccccc2c1=O
2 |  | > 9.00 | Cn1nc(CC(=O)Nc2cccc(-c3ccc(C#N)cc3)c2)c2ccccc2c1=O
